Measurements taken from patent publication US9723843B2, “Family of silver (I) periodate compounds having broad microbial properties” (Innovotech, Inc., priority 2011, dated 2017).
Where two headings read alike, the source gives them in different places.

What was measured:
[1] = Description: The purpose of this study was to develop a basic understanding of the solubility (and stability) of Ag5IO6 in pure water and 0.9% (physiological saline), following OECD Method (105)—flask.
• 1. About 0.1 g Ag5IO6 was weighed into 6 100 mL volumetric flasks. • 2. The flasks were filled to volume with ddH2O or 0.9% saline. • 3. The vessels were tightly stoppered and then agitated using a shaker in an incubator at 30° C. for approximately 24 hours. • 4. After 24 hours, two of the vessels (one per solvent) were equilibrated for 24 h at the test temperature (20° C., using a water bath) with occasional shaking. • 5. Pictures were obtained of the solutions and solid present. • 6. The contents of the vessels were then centrifuged at the test temperature (20° C.). • 7. The concentration of the test substance in the clear aqueous phase was determined by atomic absorption spectroscopy. • 8. The pH of the solution was measured using a pH meter. • 9. Triplicate samples of the solution were analyzed by UV-Vis spectroscopy. • 10. A sample of the solid material was collected by vacuum filtration, allowed to dry on the filter for 15 minutes, then transferred to a watch glass and placed in the fume hood to dry overnight. The sample was then packaged in a glass vial covered in aluminum foil and submitted for XRD analysis. • 11. The procedures of steps 4-10 were repeated for the second and third flask, after an initial equilibration at 30° C. for two and three days, respectively. Results

[2] = room temperature
Description: The purpose of this study was to determine whether or not Ag5IO6 interacts with methanol, tetrahydrofuran, acetone, and acetonitrile.
• i. […] of Ag5IO6 was placed in a vial, 2 mL of the solvent was added, and the vial was placed in a TAM III for an isothermal run at room temperature for >24 h with solvent only as the reference. The heat flow was measured. • ii. After the run was complete, the solvents were allowed to flash off and the solids collected were submitted to XRD. • iii. Samples exposed following essentially the same method for only 18 h were also submitted for XRD.

[3] = remark: listed apart in the source
Description: The purpose of this study was to determine the stability of Ag5IO6 at various temperatures independent of hydrolytic or photolytic effects, in order to obtain an understanding of its storage stability, and also to perform differential scanning calorimetry and thermal gravimetry.
• i. Ag5IO6 was made fresh, a sample was submitted for XRD analysis (Day 0), and then additional samples were placed at room temperature, 40° C., 54° C., and 90° C. for 14 and 28 days in amber glass vials placed in CO2 impermeable foil pouches with desiccant packs. After the allotted time period, the samples were submitted for XRD. • Samples were submitted for DSC/TGA to measure thermal stability.

[4] = greater than 1.3 million lux hours exposure
Excerpt: The purpose of this study was to assess the photostability of Ag5IO6 in accordance with the FDA's 1997 recommendations regarding the photostability testing of new products.
The samples were then submitted for XRD.

Compound: [Ag+].[Ag+].[Ag+].[Ag+].[Ag+].[O-][I+]([O-])([O-])([O-])([O-])[O-] [Ag5IO6, pentasilver hexaoxoiodate]
- solubility in saline ([1]; 0.9% saline, 20° C., calculated assuming that all Ag in solution is due to Ag5IO6): 0.61 ± 0.05 µg/mL
- solubility in ddH2O ([1]; ddH2O, 20° C., calculated assuming that all Ag in solution is due to Ag5IO6): 24.41 ± 0.87 µg/mL
- solid material converted to Ag metal (XRD) ([1]; in ddH2O): 0.1%
- solid material remained as Ag5IO6 (XRD) ([1]; in ddH2O): approximately 99.9%
- solid material converted to AgCl (XRD) ([1]; in saline, solid collected at the end of the experiment): approximately 25%
- pH in saline ([1]; solution over Ag5IO6 in 0.9% saline): 10
- pH in ddH2O ([1]; solution over Ag5IO6 in ddH2O): 8
- onset of significant reaction ([2]; THF): ~56 h
- onset of significant reaction ([2]; acetonitrile (slower onset)): ~56 h
- time blended with solvents without substantial reaction ([2]; all solvents (methanol, tetrahydrofuran, acetone, acetonitrile)): < 18 h
- onset of significant reaction ([2]; methanol): ~33 h
- composition after storage (XRD) ([3]; 90° C., 14 and 28 days): 100 % Ag5IO6
- grain size ([3]; 90° C., Day 14): 62 Å
- grain size ([3]; 90° C., Day 28): 94 Å
- grain size ([3]; Day 0): 14 Å
- temperature up to which stable ([3]; powder): > 400 °C
- time stable at 90° C. ([3]; powder, 90° C.): > 28 days
- temperature up to which stable ([3]; powder, listed as Ag5IO6 powder): up to 440 °C
- shelf life at room temperature ([3]; suggested by stability at 54° C. for 28 days): > 2 years
- composition after light exposure (XRD) [4]: 100 % Ag5IO6
